Reference: the supplement of paper PMC4862054

Legend:
Assay in all cases: normalised response (% of control), CellTiter-Glo; higher = more viable cells (100 = DMSO, 0 = benzethonium chloride kill control)
Settings in all cases: incubation time: 72 h
CAL-120 = test system: CAL-120
Outline: (§1)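 Breast cancer cell lines (20 µl suspension) were seeded into 384-well plates holding compound at 5 concentrations in 10-fold steps over a compound-specific 10,000-fold range, then incubated 72 h. CellTox Green fluorescence (485/520 nm) was read first, then CellTiter-Glo luminescence after 10 min at room temperature. Each plate was normalised to 0.1 % DMSO (100) and a positive kill control (0). Each value is the normalised signal at a single concentration of the series.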

Hs578T = test system: Hs578T
Outline: as §1

HDQ-P1 = test system: HDQ-P1
Outline: as §1

HCC1143 = test system: HCC1143
Outline: as §1

HCC1937 = test system: HCC1937
Outline: as §1

MDA-MB-453 = test system: MDA-MB-453
Outline: as §1

BT-549 = test system: BT-549
Outline: as §1

CAL-148 = test system: CAL-148
Outline: as §1

MCF-10A = test system: MCF-10A
Outline: as §1

## CC[C@@]1(O)C(=O)OCc2c1cc1n(c2=O)Cc2cc3c(CN(C)C)c(O)ccc3nc2-1 [Topotecan] (100 nM)
CAL-120
  normalised response: 95.9%
Hs578T
  normalised response: 101%
HDQ-P1
  normalised response: 95.7%
HCC1143
  normalised response: 92.9%
HCC1937
  normalised response: 95.7%
MDA-MB-453
  normalised response: 133%
BT-549
  normalised response: 84.2%
CAL-148
  normalised response: 62.4%
MCF-10A
  normalised response: 90.2%
